The values below come from US11667649B2, “Heteroaromatic macrocyclic ether chemotherapeutic agents” (Nuvalent, Inc., priority 2020, dated 2023).

This test relates to TPM3-NTRK1-wt IC50 / primary target (e.g. CD74-ROS1-wt) IC50, Ba/F3 cells. The test is described as follows: Cell assay TRKA selectivity (TRKA potency divided by primary target potency). The test is classed as cell-based. The note with it: for TPM3-NTRK1-wt/CD74-ROS1-G2032R: TRKA selectivity ratio: TPM3-NTRK1-wt IC50 / CD74-ROS1-G2032R IC50, Ba/F3 cells; for TPM3-NTRK1-wt/CD74-ROS1-wt: TRKA selectivity ratio: TPM3-NTRK1-wt IC50 / CD74-ROS1-wt IC50, Ba/F3 cells; for TPM3-NTRK1-wt/EML4-ALK-L1196M-G1202R: TRKA selectivity ratio: TPM3-NTRK1-wt IC50 / EML4-ALK-L1196M-G1202R IC50, Ba/F3 cells; for TPM3-NTRK1-wt/EML4-ALK-wt: TRKA selectivity ratio: TPM3-NTRK1-wt IC50 / EML4-ALK-wt IC50, Ba/F3 cells. Summed up:
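Ratio of TRKA to primary-target cellular IC50 (e.g. TPM3-NTRK1-wt/CD74-ROS1-wt), grouped into bins A >30, B >10, C ≥1, D <1. Each IC50 came from engineered Ba/F3 fusion lines grown without IL-3, dosed for 72 h and read as CellTiter-Glo luminescence, with a four-parameter logistic fit.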

Regarding `Cc1nc2c(s1)Cc1c(C)nn(CC3CC3)c1-c1cnc(N)c(c1)O[C@H](C)c1cc(F)ccc1-2` [Example 134, (19R)-3-(cyclopropylmethyl)-16-fluoro-5,10,19-trimethyl-20-oxa-9-thia-3,4,11,23-tetraazapentacyclo[19.3.1.0^2,^6.0^8,^12.0^13,^18]pentacosa-1(24),2(6),4,8(12),10,13,15,17,21(25),22-decaen-22-amine], the TPM3-NTRK1-wt/CD74-ROS1-G2032R entry is reported as “A (bin A for very high selectivity, ratio>30-fold)”; the TPM3-NTRK1-wt/CD74-ROS1-wt result is “A (bin A for very high selectivity, ratio>30-fold)”; the TPM3-NTRK1-wt/EML4-ALK-L1196M-G1202R entry is “A (bin A for very high selectivity, ratio>30-fold)”; the TPM3-NTRK1-wt/EML4-ALK-wt entry was “A (bin A for very high selectivity, ratio>30-fold)”.

Consider `Cc1nn(CC2CC2)c2c1Cc1cccnc1-c1ccc(F)cc1[C@@H](C)Oc1cc-2cnc1N` [Example 135, (20R)-3-(cyclopropylmethyl)-17-fluoro-5,20-dimethyl-21-oxa-3,4,12,24-tetraazapentacyclo[20.3.1.0^2,^6.0^8,^13.0^14,^19]hexacosa-1(25),2(6),4,8(13),9,11,14,16,18,22(26),23-undecaen-23-amine], for which the TPM3-NTRK1-wt/CD74-ROS1-G2032R entry is given as “A (bin A for very high selectivity, ratio>30-fold)”; the TPM3-NTRK1-wt/CD74-ROS1-wt entry was “A (bin A for very high selectivity, ratio>30-fold)”; the TPM3-NTRK1-wt/EML4-ALK-L1196M-G1202R result is given as “A (bin A for very high selectivity, ratio>30-fold)”; the TPM3-NTRK1-wt/EML4-ALK-wt entry was “A (bin A for very high selectivity, ratio>30-fold)”.

`Cc1nn(CC2CC2)c2c1Cc1cc(C(F)F)nn1-c1ccc(F)cc1COc1cc-2cnc1N` [Example 136, 3-(cyclopropylmethyl)-10-(difluoromethyl)-16-fluoro-5-methyl-20-oxa-3,4,11,12,23-pentaazapentacyclo[19.3.1.0^2,^6.0^8,^12.0^13,^18]pentacosa-1(24),2(6),4,8,10,13,15,17,21(25),22-decaen-22-amine]: the TPM3-NTRK1-wt/CD74-ROS1-G2032R entry was “A (bin A for very high selectivity, ratio>30-fold)”; the TPM3-NTRK1-wt/CD74-ROS1-wt entry is reported as “A (bin A for very high selectivity, ratio>30-fold)”; the TPM3-NTRK1-wt/EML4-ALK-L1196M-G1202R entry was “A (bin A for very high selectivity, ratio>30-fold)”; the TPM3-NTRK1-wt/EML4-ALK-wt result is listed as “A (bin A for very high selectivity, ratio>30-fold)”.

Turning to `C[C@H]1Oc2cc(cnc2N)-c2c(cnn2CC2CC2)Cc2cccnc2-c2ccc(F)cc21` [Example 137, (20R)-3-(cyclopropylmethyl)-17-fluoro-20-methyl-21-oxa-3,4,12,24-tetraazapentacyclo[20.3.1.0^2,^6.0^8,^13.0^14,^19]hexacosa-1(25),2(6),4,8(13),9,11,14,16,18,22(26),23-undecaen-23-amine], the TPM3-NTRK1-wt/CD74-ROS1-G2032R result is “A (bin A for very high selectivity, ratio>30-fold)”; the TPM3-NTRK1-wt/CD74-ROS1-wt result is recorded as “A (bin A for very high selectivity, ratio>30-fold)”; the TPM3-NTRK1-wt/EML4-ALK-L1196M-G1202R entry is “A (bin A for very high selectivity, ratio>30-fold)”; the TPM3-NTRK1-wt/EML4-ALK-wt result was “A (bin A for very high selectivity, ratio>30-fold)”.

As for `Nc1ncc2cc1OCc1cc(F)ccc1-n1nc(C(F)F)cc1Cc1cnn(CC3CC3)c1-2` [Example 138, 3-(cyclopropylmethyl)-10-(difluoromethyl)-16-fluoro-20-oxa-3,4,11,12,23-pentaazapentacyclo[19.3.1.0^2,^6.0^8,^12.0^13,^18]pentacosa-1(24),2(6),4,8,10,13,15,17,21(25),22-decaen-22-amine], the TPM3-NTRK1-wt/CD74-ROS1-G2032R result is on record as “A (bin A for very high selectivity, ratio>30-fold)”; the TPM3-NTRK1-wt/CD74-ROS1-wt result is given as “A (bin A for very high selectivity, ratio>30-fold)”; the TPM3-NTRK1-wt/EML4-ALK-L1196M-G1202R entry is given as “A (bin A for very high selectivity, ratio>30-fold)”; the TPM3-NTRK1-wt/EML4-ALK-wt entry is listed as “A (bin A for very high selectivity, ratio>30-fold)”.

For the compound `C[C@H]1Oc2cc(cnc2N)-c2c(cnn2C2COC2)Cc2cn(C)nc2-c2ccc(F)cc21` [Example 139, (19R)-16-fluoro-10,19-dimethyl-3-(oxetan-3-yl)-20-oxa-3,4,10,11,23-pentaazapentacyclo[19.3.1.0^2,^6.0^8,^12.0^13,^18]pentacosa-1(24),2(6),4,8,11,13,15,17,21(25),22-decaen-22-amine], the TPM3-NTRK1-wt/CD74-ROS1-G2032R entry is given as “A (bin A for very high selectivity, ratio>30-fold)”; the TPM3-NTRK1-wt/CD74-ROS1-wt result was “A (bin A for very high selectivity, ratio>30-fold)”; the TPM3-NTRK1-wt/EML4-ALK-L1196M-G1202R result is “C (bin C for moderate selectivity, ratio≥1)”; the TPM3-NTRK1-wt/EML4-ALK-wt result was “A (bin A for very high selectivity, ratio>30-fold)”.

For the compound `CCn1cc2c(n1)-c1ccc(F)cc1[C@@H](C)Oc1cc(cnc1N)-c1c(cnn1CC1CC1)C2` [Example 140, (19R)-3-(cyclopropylmethyl)-10-ethyl-16-fluoro-19-methyl-20-oxa-3,4,10,11,23-pentaazapentacyclo[19.3.1.0^2,^6.0^8,^12.0^13,^18]pentacosa-1(24),2(6),4,8,11,13,15,17,21(25),22-decaen-22-amine], the TPM3-NTRK1-wt/CD74-ROS1-G2032R entry is on record as “A (bin A for very high selectivity, ratio>30-fold)”; the TPM3-NTRK1-wt/CD74-ROS1-wt entry is listed as “A (bin A for very high selectivity, ratio>30-fold)”; the TPM3-NTRK1-wt/EML4-ALK-L1196M-G1202R result was “A (bin A for very high selectivity, ratio>30-fold)”; the TPM3-NTRK1-wt/EML4-ALK-wt entry is “A (bin A for very high selectivity, ratio>30-fold)”.

Consider `Cc1cc2n(n1)-c1ccc(F)cc1[C@@H](C)Oc1cc(cnc1N)-c1c(c(C)nn1CC1CC1)C2` [Example 141, (19R)-3-(cyclopropylmethyl)-16-fluoro-5,10,19-trimethyl-20-oxa-3,4,11,12,23-pentaazapentacyclo[19.3.1.0^2,^6.0^8,^12.0^13,^18]pentacosa-1(24),2(6),4,8,10,13,15,17,21(25),22-decaen-22-amine], for which the TPM3-NTRK1-wt/CD74-ROS1-G2032R entry is “A (bin A for very high selectivity, ratio>30-fold)”; the TPM3-NTRK1-wt/CD74-ROS1-wt entry was “A (bin A for very high selectivity, ratio>30-fold)”; the TPM3-NTRK1-wt/EML4-ALK-L1196M-G1202R result is “A (bin A for very high selectivity, ratio>30-fold)”; the TPM3-NTRK1-wt/EML4-ALK-wt entry was “A (bin A for very high selectivity, ratio>30-fold)”.

Take `CCn1nc(Cl)c2c1-c1cnc(N)c(c1)O[C@H](C)c1cc(F)cnc1-c1nn(C)cc1C2` [Example 142, (19R)-5-chloro-3-ethyl-16-fluoro-10,19-dimethyl-20-oxa-3,4,10,11,14,23-hexaazapentacyclo[19.3.1.0^2,^6.0^8,^12.0^13,^18]pentacosa-1(24),2(6),4,8,11,13,15,17,21(25),22-decaen-22-amine]: the TPM3-NTRK1-wt/CD74-ROS1-G2032R entry is on record as “A (bin A for very high selectivity, ratio>30-fold)” and the TPM3-NTRK1-wt/EML4-ALK-L1196M-G1202R result is reported as “B (bin B for high selectivity, ratio>10-fold)”.

For the compound `C[C@H]1Oc2cc(cnc2N)-c2c(C#N)nn(C)c2Cc2csnc2-c2ccc(F)cc21` [Example 143, (19R)-22-amino-16-fluoro-5,19-dimethyl-20-oxa-10-thia-4,5,11,23-tetraazapentacyclo[19.3.1.0^2,^6.0^8,^12.0^13,^18]pentacosa-1(24),2(6),3,8,11,13,15,17,21(25),22-decaene-3-carbonitrile], the TPM3-NTRK1-wt/CD74-ROS1-G2032R entry is recorded as “A (bin A for very high selectivity, ratio>30-fold)”; the TPM3-NTRK1-wt/CD74-ROS1-wt entry was “A (bin A for very high selectivity, ratio>30-fold)”; the TPM3-NTRK1-wt/EML4-ALK-L1196M-G1202R result is reported as “B (bin B for high selectivity, ratio>10-fold)”; the TPM3-NTRK1-wt/EML4-ALK-wt result was “A (bin A for very high selectivity, ratio>30-fold)”.

For `COc1cc2n(n1)-c1ccc(F)cc1[C@@H](C)Oc1cc(cnc1N)-c1c(nnn1CC1CC1)C2` [Example 144, (19R)-3-(cyclopropylmethyl)-16-fluoro-10-methoxy-19-methyl-20-oxa-3,4,5,11,12,23-hexaazapentacyclo[19.3.1.0^2,^6.0^8,^12.0^13,^18]pentacosa-1(24),2(6),4,8,10,13,15,17,21(25),22-decaen-22-amine], the TPM3-NTRK1-wt/CD74-ROS1-G2032R entry is recorded as “A (bin A for very high selectivity, ratio>30-fold)”; the TPM3-NTRK1-wt/CD74-ROS1-wt entry was “A (bin A for very high selectivity, ratio>30-fold)”; the TPM3-NTRK1-wt/EML4-ALK-L1196M-G1202R result is “B (bin B for high selectivity, ratio>10-fold)”; the TPM3-NTRK1-wt/EML4-ALK-wt entry is “A (bin A for very high selectivity, ratio>30-fold)”.

Consider `CCn1ncc2c1-c1cnc(N)c(c1)O[C@H](C)c1cc(F)ccc1-c1nc(OC)ccc1C2` [Example 145, (20R)-3-ethyl-17-fluoro-11-methoxy-20-methyl-21-oxa-3,4,12,24-tetraazapentacyclo[20.3.1.0^2,^6.0^8,^13.0^14,^19]hexacosa-1(25),2(6),4,8(13),9,11,14,16,18,22(26),23-undecaen-23-amine], for which the TPM3-NTRK1-wt/CD74-ROS1-G2032R entry is listed as “A (bin A for very high selectivity, ratio>30-fold)”; the TPM3-NTRK1-wt/CD74-ROS1-wt result is reported as “A (bin A for very high selectivity, ratio>30-fold)”; the TPM3-NTRK1-wt/EML4-ALK-L1196M-G1202R entry is on record as “C (bin C for moderate selectivity, ratio≥1)”; the TPM3-NTRK1-wt/EML4-ALK-wt result is given as “A (bin A for very high selectivity, ratio>30-fold)”.

As for `C[C@H]1Oc2cc(cnc2N)-c2c(CC3CC3)cnn2Cc2cccnc2-c2ccc(F)cc21` [Example 146, (20R)-3-(cyclopropylmethyl)-17-fluoro-20-methyl-21-oxa-5,6,12,24-tetraazapentacyclo[20.3.1.0^2,^6.0^8,^13.0^14,^19]hexacosa-1(25),2,4,8(13),9,11,14,16,18,22(26),23-undecaen-23-amine], the TPM3-NTRK1-wt/CD74-ROS1-G2032R result is reported as “A (bin A for very high selectivity, ratio>30-fold)”; the TPM3-NTRK1-wt/CD74-ROS1-wt entry is recorded as “A (bin A for very high selectivity, ratio>30-fold)”; the TPM3-NTRK1-wt/EML4-ALK-L1196M-G1202R result was “B (bin B for high selectivity, ratio>10-fold)”; the TPM3-NTRK1-wt/EML4-ALK-wt entry is listed as “A (bin A for very high selectivity, ratio>30-fold)”.
